Key:
Assay type in all cases: biochemical
[1] = biological target: human i-20S β5i (Homo sapiens, UniProt P20618+P28062); assay: Human immunoproteasome inhibition assay; settings: for inhibitory potency against human i-20S (in words): qualitative statement, comparison as stated in the sentence
[2] = biological target: Mtb20S (Mycobacterium tuberculosis, UniProt P9WHT9); settings: for inhibitory potency against Mtb20S (in words): qualitative statement, comparison as stated in the sentence
[3] = biological target: human c-20S β5c (Homo sapiens, UniProt P20618+P28074); settings: qualitative statement; comparison as stated in the sentence

Chain of Mtb20S (P9WHT9 58-291): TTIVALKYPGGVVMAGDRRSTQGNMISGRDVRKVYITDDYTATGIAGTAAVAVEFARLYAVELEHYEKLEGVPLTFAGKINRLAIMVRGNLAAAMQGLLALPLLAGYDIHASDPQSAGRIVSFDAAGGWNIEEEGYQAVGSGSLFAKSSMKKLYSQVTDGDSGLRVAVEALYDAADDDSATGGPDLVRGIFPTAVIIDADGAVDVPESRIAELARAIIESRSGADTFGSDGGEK

SMILES | inhibitory potency against Mtb20S (in words) [2] | selectivity for Mtb20S over both c-20S and i-20S (in words) [2] | also measured
Cc1cc(C(=O)N[C@@H](CC(=O)N2CCCC[C@@H]2C)C(=O)N[C@@H](C)C(=O)NCc2ccc(F)cc2F)no1 [A85] | maintaining potency | – | selectivity for Mtb20S over i-20S β5i [1]: 4 fold
Cc1cc(C(=O)N[C@@H](CC(=O)N2CCC[C@@H]2c2ccccc2)C(=O)N[C@@H](C)C(=O)NCc2ccc(F)cc2F)no1 [A86] | – | – | improvement in IC50 values against Mtb20S ([2]; relative to A85): 2.4 fold
Cc1cc(C(=O)N[C@@H](CC(=O)N2CCC[C@@H]2c2ccccc2)C(=O)N[C@@H](C)C(=O)NCc2c(F)cccc2F)no1 [A119] | maintained | – | inhibitory potency against human i-20S (in words) [1]: reduced
COc1ccccc1CNC(=O)[C@H](C)NC(=O)[C@H](CC(=O)N1CCC[C@@H]1c1ccccc1)NC(=O)c1cc(C)on1 [A120] | reduced | – | inhibitory potency against human c-20S (in words) [3]: reduced; inhibitory potency against human i-20S (in words) [1]: reduced
Cc1cc(C(=O)N[C@@H](CC(=O)N2CCCC[C@@H]2C)C(=O)N[C@@H](C)c2ncc(-c3ccccc3)[nH]2)no1 [B1] | modest inhibitory activity | – | –
Cc1cc(C(=O)N[C@@H](CC(=O)N2CCC[C@@H]2c2ccccc2)C(=O)N[C@@H](C)c2ncc(-c3ccccc3F)[nH]2)no1 [B6] | highly potent | markedly selective | –
Cc1cc(C(=O)N[C@@H](CC(=O)N2CCC[C@@H]2c2ccccc2)C(=O)N[C@@H](C)c2ncc(-c3ccccc3)[nH]2)no1 [B36] | highly potent | markedly selective | –
Cc1cc(C(=O)N[C@@H](CC(=O)N2CCC[C@@H]2c2ccccc2)C(=O)N[C@@H](C)c2ncc(-c3ccc(F)cc3F)[nH]2)no1 [B37] | highly potent | markedly selective | –
